According to patent US20160361314A1, “COMBINATION OF AN ALK INHIBITOR AND A CDK INHIBITOR FOR THE TREATMENT OF CELL PROLIFERATIVE DISEASES” (NOVARTIS AG, priority 2013, published 2016):
Entries after “also recorded” stand apart in the source; their conditions may differ.

Tests used:
Format in all cases: cell-based
[1] = test system: SH-SY5Y human neuroblastoma cells; test: Loewe additivity (CHALICE) synergy screen, CellTiter-Glo viability, 7x7 dose matrix; design: key to Max Combo Effect: growth inhibition scale; 100 = stasis; details: SH-SY5Y (F1174L)
Protocol: (§1) The synergistic interaction of drug combinations were assessed based on the Loewe Additivity Model using Chalice software [CombinatoRx, Cambridge Mass.]). […] 27:659-66. The software compares the response (% inhibition or % reduction of cell viability) of drug treatment from a combination of two agents to the response of the agents acting alone, against the drug-with-itself dose-additive reference model (the Loewe Additivity Model). Deviations from dose additives can be assessed numerically with a “synergy score” which quantifies the overall strength of combination effect. A synergy score >0 indicates a synergistic combination. In order to ensure only strongly synergistic combinations were selected, the acceptance criteria were set at a higher level. Strongly synergistic combinations were defined as having both a synergy score >2, a synergy score that is twice as large as the background (non-synergy) model would predict, and a maximum efficacy of >100, a value equivalent to stasis, as determined from the growth inhibition calculation.
(§2) After treatment, cell viabilty (quantity of viable cells) for each test mixtures were determined by the CellTiter-Glo® (CTG) luminescent cell viability assay (Promega) described in the Assay section, infra. […] The response to treatment (% reduction of cell viability) was analyzed using Chalice software [CombinatoRx, Cambridge Mass.]). Data evaluation and graph generation were performed using Microsoft Excel software and Chalice software.
(§3) The combinations were tested in duplicate using a 7×7 dose matrix block in 1536 well format with a cell proliferation readout as described in the Assay section infra.
(§4) All synergy calculations were performed using CHALICE software package from Zalicus and potential synergistic interactions between compound combinations were assessed using the Excess Inhibition 2D matrix according to the Loewe additivity model and were reported as synergy score (Table 10) (Lehar et al). Strongly synergistic combination were identified as having both (1) a synergy score greater than 2, a synergy score that is twice as large as the background (non-synergy) model would predict, and (2) a maximum efficacy of >100, a value roughly equivalent to stasis, as determined from the growth inhibition calculation.
(§5) Cell viability were determined by measuring cellular ATP content using the CellTiter-Glo® (CTG) luminescent cell viability assay (Promega). […] Reduced and enhanced luminescent signal values (responses) were calculated relative to untreated (control) cells, and the calculated signal value proportional to the cell viability.
(§6) Synergistic combinations were identified based on the Loewe Addivity Model. To measure the effects of drug combinations on the cell viability, cells from the 20 cell lines listed in Table 1 above were seeded into 1536-well assay plates at a density 300 cells per well in a 7 μL final volume and incubated at 37° C. overnight in a GNF Systems incubator with 95% RH and 5% CO2.
(§7) A six-point dose response curve for the test compounds were prepared in a 384 well ECHO compatible source plate (Labcyte P-05525) with 3-fold serial dilution series. For example, for a six-point dose response curve and a top compound concentration of 5 mM, the concentration of the compounds in the source well were 5 mM, 1.67 mM, 0.56 mM, 0.19 mM, 0.06 mM and 0.02 mM.
(§8) Approximately 18 hours after plating, compound combinations were generated on the fly by transferring 7.5 nL of compound from the pre-diluted source plates using the Labcyte ECHO555 integrated onto the ACP-1 system with replicate plates per cell line; the final DMSO concentration per well was 0.2%. It is noted that the total volume in the wells was 7 μL.
(§9) The well at the intersection of the first column and first row which received no compound was dosed with 2×7.5 nL of DMSO and served as control.

[2] = test system: NB-1691 human neuroblastoma cells; test: as above; design: key to Max Combo Effect: growth inhibition scale; 100 = stasis; details: NB-1691 (WT); for Max Combo Effect: in % (unit assumed)
Protocol: as §1, §2, §3, §4, §5, §6, §7, §8, §9

[3] = test system: IMR-5 human neuroblastoma cells; test: as above; design: key to Max Combo Effect: growth inhibition scale; 100 = stasis
Protocol: as §1, §2, §3, §4, §5, §6, §7, §8, §9

[4] = test system: SK-N-BE(2) human neuroblastoma cells; test: as above; design: key to Max Combo Effect: growth inhibition scale; 100 = stasis; details: SK-N-BE(2) (WT)
Protocol: as §1, §2, §3, §4, §5, §6, §7, §8, §9

[5] = test system: SK-N-FI human neuroblastoma cells; test: as above; design: key to Max Combo Effect: growth inhibition scale; 100 = stasis; details: SK-N-FI (WT); for Max Combo Effect: in % (unit assumed)
Protocol: as §1, §2, §3, §4, §5, §6, §7, §8, §9

[6] = test system: CHP-134 human neuroblastoma cells; test: as above; design: key to Max Combo Effect: growth inhibition scale; 100 = stasis; details: for Max Combo Effect: in % (unit assumed)
Protocol: as §1, §2, §3, §4, §5, §6, §7, §8, §9

[7] = test system: SK-N-AS human neuroblastoma cells; test: as above; design: key to Max Combo Effect: growth inhibition scale; 100 = stasis; details: SK-N-AS (WT); for Max Combo Effect: in % (unit assumed)
Protocol: as §1, §2, §3, §4, §5, §6, §7, §8, §9

[8] = test system: LAN-5 human neuroblastoma cells; test: as above; design: key to Max Combo Effect: growth inhibition scale; 100 = stasis; details: LAN-5 (R1275Q)
Protocol: as §1, §2, §3, §4, §5, §6, §7, §8, §9

[9] = test system: NB-SD human neuroblastoma cells; test: as above; design: key to Max Combo Effect: growth inhibition scale; 100 = stasis; details: NB-SD (F1174L); for Max Combo Effect: in % (unit assumed)
Protocol: as §1, §2, §3, §4, §5, §6, §7, §8, §9

[10] = test system: panel of human neuroblastoma cell lines (ALK mutant and wild type); test: Loewe additivity (CHALICE) synergy screen, results over the whole panel; details: for Mean of synergy scores over the cell lines / Median of synergy scores over the cell lines: 15 cell lines of Table 2; for Single-agent efficacy over the panel (self-cross scatter plots): Example A, FIGS. 4A, 4B, 15 cell lines; for Efficacy and synergy over the panel (scatter plots): Example G, FIG. 21, 16 cell lines
Protocol: as §1, §2
The statistical variation of the synergy scores tabulated in Tables 2 and 3 were graphically illustrated by a Box Plot (FIG. 3). […] The ALK×ALK and CDK4/6×CDK4/6 combination is moderately sygergistic with synergy score at 1.011 (sd=0.4) and 1.16 (sd=0.43), respectively. In ALK normal cells, the combinations and the self-cross treatments were not sygeristic with synergistic score of about 0.5, but similarly large standard deviations.
For visual identification for strongly synergistic compositions, the data in Tables 2 and 3 were presented in scatter plots (FIGS. 4 A-C) where maximum combination efficacy were plotted against the synergy scores. Only data from two of the three ALK inhibitors, compounds A1 and A2 were included. In a scatter plot, a vertical shift implies additive effect; a right shift implies synergistic interactions and a diagonal shift implies synergy with a boost in efficacy. Synergistic combination hits are those in the upper right quadrant where the synergy score is >2 and the maximum efficacy is >100.
as §3, §4, §5
Synergistic combinations were identified based on the Loewe Addivity Model.

SMILES | Max Combo Effect ([1]; Table 2) | Synergy score (Mean) ([1]; Table 2) | Synergy score (Mean) ([2]; Table 2) | Max Combo Effect ([2]; Table 2) | Max Combo Effect ([3]; IMR-5 (ALK WT), Table 2) | Synergy score (Mean) ([3]; IMR-5 (ALK WT), Table 2) | Max Combo Effect ([4]; Table 2) | Single-agent efficacy over the panel (self-cross scatter plots) [10] | Synergy score (Mean) ([2]; Table 3) | Max Combo Effect ([2]; Table 3) | Max Combo Effect ([3]; IMR-5 (WT), Table 3) | Synergy score (Mean) ([3]; IMR-5 (WT), Table 3) | Max Combo Effect ([4]; Table 3) | Synergy score (Mean) ([4]; Table 3) | Max Combo Effect ([5]; Table 3) | Synergy score (Mean) ([6]; CHP-134 (WT), Table 3) | Max Combo Effect ([6]; CHP-134 (WT), Table 3) | Synergy score (Mean) ([7]; Table 3) | Synergy score (Mean) ([9]; Table 3) | Max Combo Effect ([9]; Table 3) | other results
Cc1cc(Nc2ncc(Cl)c(Nc3ccccc3S(=O)(=O)C(C)C)n2)c(OC(C)C)cc1C1CCNCC1 [Compound A1, 5-chloro-N2-(2-isopropoxy-5-methyl-4-(piperidin-4-yl)phenyl)-N4-[2-(propane-2-sulfonyl)-phenyl]-pyrimidine-2,4-diamine] | 91.5 | 0.638 | 0.760 | 111.9 | 80.4 | 0.884 | 25.2 | preferential single-agent efficacy for the ALK disease cell lines over the ALK normal cell lines |  |  |  |  |  |  |  |  |  |  |  |  | Synergy score (Mean) ([4]; Table 2): 0.246; Synergy score (Mean) ([5]; Table 2): 1.135; Max Combo Effect ([5]; Table 2): 59.7; Synergy score (Mean) ([6]; CHP-134 (ALK WT), Table 2): 0.223; Max Combo Effect ([6]; CHP-134 (ALK WT), Table 2): 26.1; Synergy score (Mean) ([7]; Table 2): 0.374; Max Combo Effect ([7]; Table 2): 42.4; Max Combo Effect ([8]; Table 2): 166.1; Synergy score (Mean) ([8]; Table 2): 1.731; Synergy score (Mean) ([9]; Table 2): 0.908; Max Combo Effect ([9]; Table 2): 141.5; Mean of synergy scores over the cell lines [10]: 0.841; Median of synergy scores over the cell lines [10]: 0.884; Efficacy and synergy over the panel (scatter plots) [10]: preferential single agent efficacy for the ALK Disease subset of cell lines over the ALK WT cell lines
CN(C)C(=O)c1cc2cnc(Nc3ccc(N4CCNCC4)cn3)nc2n1C1CCCC1 [Compound B, 7-cyclopentyl-N,N-dimethyl-2-((5-(piperazin-1-yl)pyridin-2-yl)amino)-7H-pyrrolo[2,3-d]pyrimidine-6-carboxamide] | 86.8 | 0.811 | 1.032 | 121.1 | 82.0 | 0.788 | 75.2 | single-agent efficacy (>100) in two disease cell lines and one normal cell line; also recorded: minimal single agent efficacy or synergy | 0.38 | 91.57 | 89.02 | 1.04 | 93.3 | 1.41 | 51.2 | 0.35 | 48.76 | 0.48 | 0.97 | 61.5 | Max Combo Effect ([1]; Table 3): 35.3; Synergy score (Mean) ([1]; Table 3): 0.09; Synergy score (Mean) ([4]; Table 2): 0.628; Synergy score (Mean) ([5]; Table 2): 0.435; Max Combo Effect ([5]; Table 2): 60.3; Synergy score (Mean) ([5]; Table 3): 0.21; Synergy score (Mean) ([6]; CHP-134 (ALK WT), Table 2): 0.388; Max Combo Effect ([6]; CHP-134 (ALK WT), Table 2): 52.3; Synergy score (Mean) ([7]; Table 2): 0.503; Max Combo Effect ([7]; Table 2): 64.7; Max Combo Effect ([8]; Table 2): 99.2; Synergy score (Mean) ([8]; Table 2): 1.161; Max Combo Effect ([8]; Table 3): 73.59; Synergy score (Mean) ([8]; Table 3): 0.57; Synergy score (Mean) ([9]; Table 2): 1.476; Max Combo Effect ([9]; Table 2): 98.6; Mean of synergy scores over the cell lines [10]: 0.757; Median of synergy scores over the cell lines [10]: 0.788; Efficacy and synergy over the panel (scatter plots) [10]: no single agent efficacy in any of the cell lines tested
C[C@@H](Oc1cc(-c2cnn(C3CCNCC3)c2)cnc1N)c1c(Cl)ccc(F)c1Cl [Compound A3, (R)-3-(1-(2,6-dichloro-3-fluorophenyl)ethoxy)-5-(1-(piperidin-4-yl)-1H-pyrazol-4-yl)pyridin-2-amine, reference compound] |  |  |  |  |  |  |  |  | 0.21 | 36.53 | 99.95 | 0.73 | 10.76 | 0.02 | 20.37 | 0.02 | 10.05 | 0.19 | 0.84 | 75.54 | Max Combo Effect ([1]; Table 3): 141.61; Synergy score (Mean) ([1]; Table 3): 0.98; Max Combo Effect ([7]; Table 3): 55.78
Cc1cc(Nc2nc(Nc3ccccc3S(=O)(=O)C(C)C)c3cn[nH]c3n2)c(OC(C)C)cc1C1CCN(C)CC1 [Compound A2, N6-(2-isopropoxy-5-methyl-4-(1-methylpiperidin-4-yl)phenyl)-N4-(2-(isopropylsulfonyl)phenyl)-1H-pyrazolo[3,4-d]pyrimidine-4,6-diamine] |  |  |  |  |  |  |  | preferential single-agent efficacy for the ALK disease cell lines over the ALK normal cell lines | 0.97 | 196.56 | 179.71 | 0.23 | 177.26 | 0.47 | 161.68 | 0.10 | 180.10 | 0.20 | 1.38 | 195.92 | Synergy score (Mean) ([5]; Table 3): 0.65; Max Combo Effect ([7]; Table 3): 61.99; Max Combo Effect ([8]; Table 3): 196.81; Synergy score (Mean) ([8]; Table 3): 0.87
